Data on 21 compounds can be found in patent US20190322676A1, “CERAMIDE GALACTOSYLTRANSFERASE INHIBITORS FOR THE TREATMENT OF DISEASE” (BioMarin Pharmaceutical Inc., priority 2016, published 2019).

Counter-ions that a name gives are not always drawn.

The target in this assay is T1, human CGT (ceramide galactosyltransferase), CHO/CGT lysate (Homo sapiens, UniProt Q16880).
T1 construct: Full-length human CGT cDNA was cloned into the BamH1/Xho1 site of pcDNA3.1 (+); expressed in transfected cells; host or cells: Chinese hamster ovary (CHO) cells; lysate prepared with M-PER
T1 sequence (Q16880 21-541): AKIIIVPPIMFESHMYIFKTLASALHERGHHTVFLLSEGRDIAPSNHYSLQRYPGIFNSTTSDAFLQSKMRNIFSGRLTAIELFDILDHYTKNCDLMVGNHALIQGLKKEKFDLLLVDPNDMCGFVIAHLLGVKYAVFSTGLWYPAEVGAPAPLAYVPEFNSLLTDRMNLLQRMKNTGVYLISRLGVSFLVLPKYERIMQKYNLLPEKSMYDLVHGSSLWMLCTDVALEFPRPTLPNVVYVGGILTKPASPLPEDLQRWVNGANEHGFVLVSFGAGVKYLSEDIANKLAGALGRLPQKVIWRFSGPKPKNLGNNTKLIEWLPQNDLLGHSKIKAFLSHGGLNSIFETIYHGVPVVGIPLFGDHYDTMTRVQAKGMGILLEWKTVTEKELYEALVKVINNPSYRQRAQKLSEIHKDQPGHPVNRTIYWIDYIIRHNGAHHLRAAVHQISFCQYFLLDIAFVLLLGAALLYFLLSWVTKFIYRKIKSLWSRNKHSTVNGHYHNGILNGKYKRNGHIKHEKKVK
Briefly: CGT enzyme assay, RapidFire/MS/MS readout (Table 1 ranges with one asterisk *). Format: biochemical. To be noted: RapidFire method (range with one asterisk *). An outline of the steps: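 Lysate (4 μg) of CHO cells transfected with full-length human CGT incubated 1 h at 37 °C with compound (0.001–50 μM) in pH 7.2 HEPES buffer with 10 μM C6-NBD-dihydro-ceramide, 17.5 μM UDP-galactose, Mg2+/Mn2+, CHAPS, BSA, 0.5% DMSO; ** set also contained 0.01% Tween 80. Product quantified by RapidFire/MS/MS, normalized to internal standard; IC50 from sigmoidal variable-slope fits.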

In turn, `CC(C)N([C@H](C(=O)N1C2CCC1CC(N)C2)C(F)(F)c1ccc(Br)cc1)S(=O)(=O)c1ccc2cc(OC3CCCC3)ccc2c1` (stereo partly drawn) [Compound 76-1, N-((2R)-3-(3-amino-8-azabicyclo[3.2.1]octan-8-yl)-1-(4-bromophenyl)-1,1-difluoro-3-oxopropan-2-yl)-6-(cyclopentyloxy)-N-isopropylnaphthalene-2-sulfonamide] showed an IC50 of 10 to 30 µM.

The compound `CC(C)N([C@@H](C(=O)N1C2CCC1CC(N)C2)C(F)(F)c1ccc(Br)cc1)S(=O)(=O)c1ccc2cc(OC3CCCC3)ccc2c1` (stereo partly drawn) [Compound 76-2, N-((2S)-3-(3-amino-8-azabicyclo[3.2.1]octan-8-yl)-1-(4-bromophenyl)-1,1-difluoro-3-oxopropan-2-yl)-6-(cyclopentyloxy)-N-isopropylnaphthalene-2-sulfonamide] returned an IC50 of 30 to 100 µM.

Regarding `NC1CC2CCC(C1)N2C(=O)[C@@H](NS(=O)(=O)c1ccc2nn(CC3CCCC3)cc2c1)C(F)(F)c1ccc(Br)cc1` (stereo partly drawn) [Compound 77-1, N-((2R)-3-(3-amino-8-azabicyclo[3.2.1]octan-8-yl)-1-(4-bromophenyl)-1,1-difluoro-3-oxopropan-2-yl)-2-(cyclopentylmethyl)-2H-indazole-5-sulfonamide], the IC50 lay within 1 to 10 µM.

`NC1CC2CCC(C1)N2C(=O)[C@H](NS(=O)(=O)c1ccc2nn(CC3CCCC3)cc2c1)C(F)(F)c1ccc(Br)cc1` (stereo partly drawn) [Compound 77-2, N-((2S)-3-(3-amino-8-azabicyclo[3.2.1]octan-8-yl)-1-(4-bromophenyl)-1,1-difluoro-3-oxopropan-2-yl)-2-(cyclopentylmethyl)-2H-indazole-5-sulfonamide] displayed an IC50 of 30 to 100 µM.

`CN([C@H](C(=O)N1C2CCC1CC(N)C2)C(F)(F)c1ccc(Br)cc1)S(=O)(=O)c1ccc2nn(CC3CCCC3)cc2c1` (stereo partly drawn) [Compound 78-1, N-((2R)-3-(3-amino-8-azabicyclo[3.2.1]octan-8-yl)-1-(4-bromophenyl)-1,1-difluoro-3-oxopropan-2-yl)-2-(cyclopentylmethyl)-N-methyl-2H-indazole-5-sulfonamide] came in with an IC50 of 1 to 10 µM.

Compound `CN([C@@H](C(=O)N1C2CCC1CC(N)C2)C(F)(F)c1ccc(Br)cc1)S(=O)(=O)c1ccc2nn(CC3CCCC3)cc2c1` (stereo partly drawn) [Compound 78-2, N-((2S)-3-(3-amino-8-azabicyclo[3.2.1]octan-8-yl)-1-(4-bromophenyl)-1,1-difluoro-3-oxopropan-2-yl)-2-(cyclopentylmethyl)-N-methyl-2H-indazole-5-sulfonamide] returned an IC50 of 30 to 100 µM.

In turn, `CCCCOc1ccc(C(F)(F)[C@@H](C(=O)N2C3CCC2CC(N)C3)N(C)S(=O)(=O)c2ccc(OCC3CCCCC3)cc2)cc1` (stereo partly drawn) [Compound 79-1, N-((2R)-3-(3-amino-8-azabicyclo[3.2.1]octan-8-yl)-1-(4-butoxyphenyl)-1,1-difluoro-3-oxopropan-2-yl)-4-(cyclohexylmethoxy)-N-methylbenzenesulfonamide] showed an IC50 of 1 to 10 µM.

`CCCCOc1ccc(C(F)(F)[C@H](C(=O)N2C3CCC2CC(N)C3)N(C)S(=O)(=O)c2ccc(OCC3CCCCC3)cc2)cc1` (stereo partly drawn) [Compound 79-2, N-((2S)-3-(3-amino-8-azabicyclo[3.2.1]octan-8-yl)-1-(4-butoxyphenyl)-1,1-difluoro-3-oxopropan-2-yl)-4-(cyclohexylmethoxy)-N-methylbenzenesulfonamide] gave an IC50 of 1 to 10 µM.

The compound `CCCCOc1ccc(C(F)(F)[C@H](NS(=O)(=O)c2ccc3cc(OC4CCCC4)ccc3c2)C(=O)N2CCC(N)CC2)cc1` [Compound 80-1, (R)—N-(3-(4-aminopiperidin-1-yl)-1-(4-butoxyphenyl)-1,1-difluoro-3-oxopropan-2-yl)-6-(cyclopentyloxy)naphthalene-2-sulfonamide] had an IC50 of under 1 µM.

On to `CCCCOc1ccc(C(F)(F)[C@@H](NS(=O)(=O)c2ccc3cc(OC4CCCC4)ccc3c2)C(=O)N2CCC(N)CC2)cc1` [Compound 80-2, (S)—N-(3-(4-aminopiperidin-1-yl)-1-(4-butoxyphenyl)-1,1-difluoro-3-oxopropan-2-yl)-6-(cyclopentyloxy)naphthalene-2-sulfonamide], for which the IC50 lay in the range of 1 to 10 µM.

`CCCCOc1ccc(C(F)(F)[C@H](NS(=O)(=O)c2ccc(OCC3CCCCC3)cc2)C(=O)N2CCC(N)CC2)cc1` [Compound 81-1, (R)—N-(3-(4-aminopiperidin-1-yl)-1-(4-butoxyphenyl)-1,1-difluoro-3-oxopropan-2-yl)-4-(cyclohexylmethoxy)benzenesulfonamide trifluoroacetate]: the IC50 fell in the range of 1 to 10 µM.

In turn, `CCCCOc1ccc(C(F)(F)[C@@H](NS(=O)(=O)c2ccc(OCC3CCCCC3)cc2)C(=O)N2CCC(N)CC2)cc1` [Compound 81-2, (S)—N-(3-(4-aminopiperidin-1-yl)-1-(4-butoxyphenyl)-1,1-difluoro-3-oxopropan-2-yl)-4-(cyclohexylmethoxy)benzenesulfonamide trifluoroacetate] gave an IC50 of 30 to 100 µM.

Consider `CCCCOc1ccc(C(F)(F)[C@H](NS(=O)(=O)c2ccc3cc(OC4CCCC4)ccc3c2)C(=O)N2C3CCC2CC(N)C3)cc1` (stereo partly drawn) [Compound 82-1, N-((2R)-3-(3-amino-8-azabicyclo[3.2.1]octan-8-yl)-1-(4-butoxyphenyl)-1,1-difluoro-3-oxopropan-2-yl)-6-(cyclopentyloxy)naphthalene-2-sulfonamide trifluoroacetate], for which the concentration for half-maximal inhibition (IC50) is under 1 µM.

As for `CCCCOc1ccc(C(F)(F)[C@@H](NS(=O)(=O)c2ccc3cc(OC4CCCC4)ccc3c2)C(=O)N2C3CCC2CC(N)C3)cc1` (stereo partly drawn) [Compound 82-2, N-((2S)-3-(3-amino-8-azabicyclo[3.2.1]octan-8-yl)-1-(4-butoxyphenyl)-1,1-difluoro-3-oxopropan-2-yl)-6-(cyclopentyloxy)naphthalene-2-sulfonamide trifluoroacetate], the half-maximal inhibitory concentration (IC50) fell in the range of 1 to 10 µM.

The compound `CCCCOc1cccc(C(F)(F)[C@H](NS(=O)(=O)c2ccc3cc(OC4CCCC4)ccc3c2)C(=O)N2CCC(N)CC2)c1` [Compound 83-1, (R)—N-(3-(4-aminopiperidin-1-yl)-1-(3-butoxyphenyl)-1,1-difluoro-3-oxopropan-2-yl)-6-(cyclopentyloxy)naphthalene-2-sulfonamide trifluoroacetate] displayed an IC50 of under 1 µM.

Take `CCCCOc1cccc(C(F)(F)[C@@H](NS(=O)(=O)c2ccc3cc(OC4CCCC4)ccc3c2)C(=O)N2CCC(N)CC2)c1` [Compound 83-2, (S)—N-(3-(4-aminopiperidin-1-yl)-1-(3-butoxyphenyl)-1,1-difluoro-3-oxopropan-2-yl)-6-(cyclopentyloxy)naphthalene-2-sulfonamide trifluoroacetate]: the IC50 is 1 to 10 µM.

For `NC1CC2CCC(C1)N2C(=O)[C@@H](NS(=O)(=O)c1ccc(OCC2CCCCC2)cc1)C(F)(F)c1ccc(Oc2ccccc2)cc1` (stereo partly drawn) [Compound 84-1, N-((2R)-3-(3-amino-8-azabicyclo[3.2.1]octan-8-yl)-1,1-difluoro-3-oxo-1-(4-phenoxyphenyl)propan-2-yl)-4-(cyclohexylmethoxy)benzenesulfonamide], the IC50 was in the range of 1 to 10 µM.

The compound `NC1CC2CCC(C1)N2C(=O)[C@H](NS(=O)(=O)c1ccc(OCC2CCCCC2)cc1)C(F)(F)c1ccc(Oc2ccccc2)cc1` (stereo partly drawn) [Compound 84-2, N-((2S)-3-(3-amino-8-azabicyclo[3.2.1]octan-8-yl)-1,1-difluoro-3-oxo-1-(4-phenoxyphenyl)propan-2-yl)-4-(cyclohexylmethoxy) benzenesulfonamide] displayed an IC50 of 10 to 30 µM.

As for `CN([C@H](C(=O)N1C2CCC1CC(N)C2)C(F)(F)c1ccc(Oc2ccccc2)cc1)S(=O)(=O)c1ccc(OCC2CCCCC2)cc1` (stereo partly drawn) [Compound 85-1, N-((2R)-3-(3-amino-8-azabicyclo[3.2.1]octan-8-yl)-1,1-difluoro-3-oxo-1-(4-phenoxyphenyl)propan-2-yl)-4-(cyclohexylmethoxy)-N-methylbenzene sulfonamide trifluoroacetate], the IC50 was 1 to 10 µM.

Turning to `CN([C@@H](C(=O)N1C2CCC1CC(N)C2)C(F)(F)c1ccc(Oc2ccccc2)cc1)S(=O)(=O)c1ccc(OCC2CCCCC2)cc1` (stereo partly drawn) [Compound 85-2, N-((2S)-3-(3-amino-8-azabicyclo[3.2.1]octan-8-yl)-1,1-difluoro-3-oxo-1-(4-phenoxyphenyl)propan-2-yl)-4-(cyclohexylmethoxy)-N-methylbenzenesulfonamide trifluoroacetate], the IC50 was 10 to 30 µM.

With `NC1CC2CCC(C1)N2C(=O)[C@@H](NS(=O)(=O)c1ccc2cc(OC3CCCC3)ccc2c1)C(F)(F)c1ccc(Oc2ccccc2)cc1` (stereo partly drawn) [Compound 86-1, N-((2R)-3-(3-amino-8-azabicyclo[3.2.1]octan-8-yl)-1,1-difluoro-3-oxo-1-(4-phenoxyphenyl)propan-2-yl)-6-(cyclopentyloxy)naphthalene-2-sulfonamide trifluoroacetate], the IC50 was under 1 µM.
